Assay results from US20200239587A1, “SENSITIZATION OF TUMORS TO THERAPIES THROUGH ENDOGLIN ANTAGONISM” (Cedars-Sinai Medical Center, priority 2016, published 2020).

What was measured:
[1] = test system: CD105 cell surface expression in human CW22Rv1 epithelia and mouse prostatic fibroblasts; test: 3D co-culture, CD105 cell surface expression by FACS; assay type: cell-based; conditions: hypoxia (2% O2), 72 hours; mouse prostatic fibroblasts and human prostate cancer epithelia
Description: After 72 hours, the cells were dissociated and assessed by FACS for CD105 expression as shown.
A modified version of the 3D organotypic co-culture system was performed in a collagen matrix similar to that previously reported (Stark et al., 1999, J Invest Dermatol 112, 681-691). Collagen matrix gels were prepared by mixing five volumes of rat tail collagen I with two volumes of matrigel (NCI), one volume of 10× DMEM medium (GE Healthcare Life Sciences), and one volume of FBS (Atlanta Biologicals), Rv1 and primary mouse prostatic fibroblasts were combined in a 1:3 ratio. Nylon squares were coated with collagen and placed on metal grids in a 6-well plate. Gel plugs (150 μl) were transferred onto the nylon squares and media was added to the level of the nylon mesh. After 72 hours, the cells were dissociated from the matrix with collagenase and dispersed for FACS analysis.
FACS experiments were performed with eBiosciences antibodies: anti-human Stro-1-FITC (340105), anti-human CD90-PE (12-0909-42), anti-human CD105-APC (17-1057-41), anti-mouse CD105-APC (17-1051-82), anti-human CD117-PE-Cy7 (15-1178-41), anti-human Ki67-PECy7 (25-5699-41), and anti-human EpCAM-PE (12-9326-41). All events were acquired on a BD LSRII flow cytometer in the Cedars-Sinai Medical Center FACS core installed with BD FACSDiva software. Files were analyzed using FlowJo software v10.2. […]

22Rv1 = test: γ-H2AX and p53BP foci after irradiation; assay type: cell-based, human; conditions: for γ-H2AX and p53BP foci: TRC105 plus 4Gy vs radiation alone
Description: 22Rv1 were pre-treated with 1 μg/ml TRC105 24 hours prior to irradiation with 4 Gy. FIG. 22A) γ-H2AX or p53 bp were imunolocalized at 4, 24, and 48 hours post radiation. Foci per nuclei were quantified (n=100). FIG. 22B) Comet assay was performed 30 minutes and 24 hours following irradiation. The tail moment was quantified (n=50). FIG. 22C) Cell cycle analysis was performed on 22Rv1 at 0, 4, 8, and 24 hours post radiation in the presence of IgG or TRC105 (n=3) in 3 independent experiments. (***p<0.001, ****p<0.0001).

[2] = test system: SFRP1 expression in human NAF and CAF; test: SFRP1 mRNA expression in NAF and CAF treated with TRC105; assay type: cell-based; conditions: vs IgG
Description: See also FIG. 15. […] Immunohistochemical localization of CD105 and SFRP1 in benign or PCa tissues are found in blood vessels (v), epithelia (e), and stroma (s), n=4. Scale bar represents 100 μm. FIG. 12E) Epithelial proliferation of human CW22Rv1, in 3D co-cultures with mouse prostatic fibroblasts, were co-stained for EpCam and Ki67 for FACS analysis. […] See also FIG. 16. […] Error bars are mean+/−SD and **p<0.01, ****p<0.0001, compared to control unless otherwise indicated.
CW22Rv1, C42B, and PC3 cells from ATCC were expanded as directed. Prostatectomy specimens from Cedars-Sinai Medical Center or the Greater Los Angeles Veterans Affairs were cultured to generate NAF and CAF cells using the same method, as C57BL/6 mouse wild-type prostatic fibroblasts were grown as previously reported (Franco et al., 2011, Cancer research 71, 1272-1281; Kiskowski et al., 2011, Cancer research 68, 4709-4718). TRC105 and M1043 were provided by TRACON Pharmaceuticals, Inc. (San Diego, Calif.). […]
Total RNA was extracted using the RNeasy kit (Qiagen). […] Quantitative RT-PCR was performed with 5 replicates using the Step One Real-Time PCR system (Applied Biosystems). […] For RNA-sequencing, Ion Proton AmpliSeq Transcriptome RNA Sequencing was performed achieving an average of 3M reads. We mapped an average of 88% of the reads to the human genome with Torrent Suite version 4.4.2.

PC3 cells = test: Cell death assay with docetaxel and TRC105; assay type: cell-based, human; conditions: different concentrations of docetaxel and TRC105
Description: The PC3 cells used in the cell death assay were treated with different concentrations of docetaxel in the presence of different concentrations of TRC105.

CW22Rv1 xenograft model = test: Subcutaneous CW22Rv1 xenograft with radiation; assay type: in vivo, mice
Description: Tumor volumes were longitudinally measured. When tumor average volume reached […] mice were treated with IgG or TRC105 in the context of radiation (2 Gy for 5 days). Tumors were harvested 15 days after the first dose of radiation. FIG. 28A) Tumor volume fold change was normalized to the first dose of radiation (day 1, ***p<0.001). FIG. 28B) Each treatment was compared for doubling of tumor volume as a function of time as depicted in the cumulative incidence plot.
The inventors assessed CD105 dependent radio-resistance using a CW22Rv1 xenograft model. Mice engrafted with subcutaneous CW22Rv1 were given one dose of IgG or TRC105 72 hours prior to radiation and subsequently 3 times a week for the duration of radiation treatment. The irradiated IgG and irradiated TRC105 groups were given a radiation dosage of 2Gy for 5 consecutive days. Fold change in tumor volume was calculated for each group (FIG. 28A).

[3] = test system: SIRT1 expression in 22Rv1; test: Radiation induced SIRT1 mRNA expression; assay type: cell-based, human; conditions: 4 Gy
Description: (§1) FIG. 21A) C4-2B were irradiated (0, 2, 4, or 6 Gy) and SIRT1 expression measured 72 hours post irradiation. FIG. 21B) C4-2B cells were irradiated (4 Gy) and SIRT1 expression measured 0, 0.5, 4, 8, 24, 48, and 72 hours post-radiation. FIG. 21C) 22Rv1 were pre-treated with 1 μg/ml IgG or TRC105 24 hours prior to irradiation with 4 Gy and compared for relative SIRT1 mRNA expression 72 hours after to irradiation. SIRT1 mRNA was normalized to GAPDH and to 0 Gy control.
(§2) Total RNA was extracted using the RNeasy kit (Qiagen). 1 μg RNA was used for cDNA synthesis using iSCRIPT cDNA synthesis kit (1708891, Bio-Rad). Quantitative RT-PCR was performed with 5 replicates using the Step One Real-Time PCR system (Applied Biosystems). Gene mRNA expression was normalized to GAPDH. Primer sequences can be found in the Table 1. For RNA-sequencing, Ion Proton AmpliSeq Transcriptome RNA Sequencing was performed achieving an average of 3M reads. We mapped an average of 88% of the reads to the human genome with Torrent Suite version 4.4.2.

[4] = test system: SIRT1 expression in C4-2B; test: Radiation induced SIRT1 mRNA expression; assay type: cell-based, human; conditions: irradiated
Description: as §1, §2

**Q.** Which “enzalutamide-induced CD105 cell surface expression” value [1] does the source give for “TRC105: partially humanized monoclonal antibody that blocks BMP signaling; human-specific CD105 (endoglin) neutralizing antibody from Tracon Pharmaceuticals” here?
**A.** down regulated

**Q.** What about the “number of cells with greater than 10 foci per nuclei” value (22Rv1; TRC105 alone (radiation alone 59.6%)) of the same substance?
**A.** 4.3%

**Q.** What about the “γ-H2AX and p53BP foci” value (22Rv1; 4 and 24 hours post radiation) of the same substance?
**A.** significant increase in γ-H2AX and p53BP foci

**Q.** What about the “γ-H2AX and p53BP foci” value (22Rv1; by 48 hours) of the same substance?
**A.** no difference

**Q.** And the “double stranded DNA breaks” value (22Rv1; TRC105 treatment alone vs untreated, within 24 hours, persisted past 72 hours)?
**A.** significant increase in double stranded DNA breaks

**Q.** What about the “SFRP1 expression in NAF” value [2] of the same substance?
**A.** no effect

**Q.** And the “SFRP1 expression in CAF” value ([2]; p<0.0001)?
**A.** significantly down regulated

**Q.** What about the “sensitization to docetaxel, cell death” value (PC3 cells) of the same substance?
**A.** taxane sensitizer

**Q.** And the tumor volume (CW22Rv1 xenograft model; TRC105 alone compared to untreated)?
**A.** did not influence tumor volume

**Q.** What about the tumor doubling time (CW22Rv1 xenograft model; TRC105 with irradiation vs either treatment alone) of the same substance?
**A.** appreciably inhibited

**Q.** What about the tumor volume (CW22Rv1 xenograft model; radiation (2Gy for 5 days) and TRC105, p<0.001) of the same substance?
**A.** significantly lower than the other three experimental groups

**Q.** What about the “radiation induced SIRT1 expression” value [3] of the same substance?
**A.** abrogated radiation induced SIRT1 expression

**Q.** And the “radiation induced SIRT1 expression” value [4]?
**A.** abrogated radiation induced SIRT1 expression
